{"source": "patent US10118966B2", "about": "“Anti-EGFR monoclonal antibody, methods of making, and uses thereof in the treatment of cancer” (Shanghai Biomabs Pharmaceuticals Co., Ltd., priority 2015, dated 2018)", "key": {"[1]": {"tested_on": "metastatic colorectal cancer", "assay": "CMAB009 Ph2/3 trial", "format": "in vivo, human", "procedure": "501 patients were identified and randomized in a 2:1 manner to group 1 or group 2. […] Patients in both groups were treated until the disease progressed or the patient reached an unacceptable level of toxicity.\nPatients were evaluated for radiologic response in both group 1 and group 2. […] Note the overall response rate (ORR) in Table 6 was determined according to the sum of the rate of CR and PR, and the disease control rate (DCR) was determined according to the sum of the rates of CR, PR, and SD."}, "[2]": {"tested_on": "metastatic colorectal cancer", "conditions": "EPIC, cited from earlier work"}, "[3]": {"conditions": "radiologic response, n = 337 / n = 164"}, "[4]": {"conditions": "radiologic response, n = 648 / n = 650"}}, "note": "Read-outs that look alike come from different tables or passages of the source."}
{"smiles": "CCc1c2c(nc3ccc(OC(=O)N4CCC(N5CCCCC5)CC4)cc13)-c1cc3c(c(=O)n1C2)COC(=O)[C@]3(O)CC", "note": "[Irinotecan monotherapy, irinotecan]", "values": [{"measurement": "Time to disease progression", "setting": "[1]; CMAB009 Ph2/3 trial", "value": 3.2, "unit": "months"}, {"measurement": "Test drug-related death AE, no. of patients", "setting": "[1]; N = 342 / N = 170", "value": 0}, {"measurement": "At least one ADR, %", "setting": "[1]; human, in vivo", "value": "(74.1%)"}, {"measurement": "At least one ADR, no. of patients", "setting": "[1]; human, in vivo", "value": 126}, {"measurement": "At least one AE which lead to stop drug treatment, %", "setting": "[1]; human, in vivo", "value": "(15.9%)"}, {"measurement": "At least one AE which lead to stop drug treatment, no. of patients", "setting": "[1]; human, in vivo", "value": 27}, {"measurement": "At least one AE, %", "setting": "[1]; human, in vivo", "value": "(87.1%)"}, {"measurement": "At least one AE, no. of patients", "setting": "[1]; human, in vivo", "value": 148}, {"measurement": "At least one Level III or above ADR, %", "setting": "[1]; human, in vivo", "value": "(5.9%)"}, {"measurement": "At least one Level III or above ADR, no. of patients", "setting": "[1]; human, in vivo", "value": 10}, {"measurement": "At least one Level III or above AE, %", "setting": "[1]; human, in vivo", "value": "(7.1%)"}, {"measurement": "At least one Level III or above AE, no. of patients", "setting": "[1]; human, in vivo", "value": 12}, {"measurement": "At least one Level III or above important AE, %", "setting": "[1]; human, in vivo", "value": "(6.5%)"}, {"measurement": "At least one Level III or above important AE, no. of patients", "setting": "[1]; human, in vivo", "value": 11}, {"measurement": "At least one SAE, %", "setting": "[1]; human, in vivo", "value": "(4.7%)"}, {"measurement": "At least one SAE, no. of patients", "setting": "[1]; human, in vivo", "value": 8}, {"measurement": "At least one important AE, %", "setting": "[1]; human, in vivo", "value": "(70.6%)"}, {"measurement": "At least one important AE, no. of patients", "setting": "[1]; human, in vivo", "value": 120}, {"measurement": "At least one test drug-related SAE, %", "setting": "[1]; human, in vivo", "value": "(0.6%)"}, {"measurement": "At least one test drug-related SAE, no. of patients", "setting": "[1]; human, in vivo", "value": 1}, {"measurement": "Grade 3-4 adverse events: Abdominal pain, no. of patients", "setting": "[1]; human, in vivo", "value": 0}, {"measurement": "Grade 3-4 adverse events: Acne-like rash, no. of patients", "setting": "[1]; human, in vivo", "value": 0}, {"measurement": "Grade 3-4 adverse events: Anemia, no. of patients", "setting": "[1]; human, in vivo", "value": 3}, {"measurement": "Grade 3-4 adverse events: Anemia, rate in parentheses", "setting": "[1]; human, in vivo", "value": 1.8}, {"measurement": "Grade 3-4 adverse events: Any, no. of patients", "setting": "[1]; human, in vivo", "value": 57}, {"measurement": "Grade 3-4 adverse events: Asthenia, no. of patients", "setting": "[1]; human, in vivo", "value": 6}, {"measurement": "Grade 3-4 adverse events: Asthenia, rate in parentheses", "setting": "[1]; human, in vivo", "value": 3.7}, {"measurement": "Grade 3-4 adverse events: Diarrhea, no. of patients", "setting": "[1]; human, in vivo", "value": 12}, {"measurement": "Grade 3-4 adverse events: Diarrhea, rate in parentheses", "setting": "[1]; human, in vivo", "value": 7.3}, {"measurement": "Grade 3-4 adverse events: Fever, no. of patients", "setting": "[1]; human, in vivo", "value": 1}, {"measurement": "Grade 3-4 adverse events: Fever, rate in parentheses", "setting": "[1]; human, in vivo", "value": 0.9}, {"measurement": "Grade 3-4 adverse events: Nausea and vomiting, no. of patients", "setting": "[1]; human, in vivo", "value": 16}, {"measurement": "Grade 3-4 adverse events: Nausea and vomiting, rate in parentheses", "setting": "[1]; human, in vivo", "value": 9.8}, {"measurement": "Grade 3-4 adverse events: Neutropenia, no. of patients", "setting": "[1]; human, in vivo", "value": 14}, {"measurement": "Grade 3-4 adverse events: Neutropenia, rate in parentheses", "setting": "[1]; human, in vivo", "value": 8.5}, {"measurement": "Grade 3-4 adverse events: Stomatitis, no. of patients", "setting": "[1]; human, in vivo", "value": 0}, {"measurement": "Grade 3-4 adverse events: Thrombocytopenia, no. of patients", "setting": "[1]; human, in vivo", "value": 0}, {"measurement": "Complete response, no. of patients", "setting": "[1]; [3]", "value": 1}, {"measurement": "Complete response, rate in parentheses", "setting": "[1]; [3]", "value": "(0.6)"}, {"measurement": "Partial response, no. of patients", "setting": "[1]; [3]", "value": 20}, {"measurement": "Partial response, rate in parentheses", "setting": "[1]; [3]", "value": "(12.2)"}, {"measurement": "Progressive disease, no. of patients", "setting": "[1]; [3]", "value": 44}, {"measurement": "Progressive disease, rate in parentheses", "setting": "[1]; [3]", "value": "(26.8)"}, {"measurement": "Stable disease, no. of patients", "setting": "[1]; [3]", "value": 86}, {"measurement": "Stable disease, rate in parentheses", "setting": "[1]; [3]", "value": "(52.4)"}, {"measurement": "Unable to evaluate, no. of patients", "setting": "[1]; [3]", "value": 13}, {"measurement": "Unable to evaluate, rate in parentheses", "setting": "[1]; [3]", "value": "(7.9)"}, {"measurement": "Overall response rate, no. of patients", "setting": "[1]; sum of CR and PR, n = 337 / n = 164", "value": 21}, {"measurement": "Disease control rate, no. of patients", "setting": "[1]; sum of CR, PR and SD, n = 337 / n = 164", "value": 107}, {"measurement": "Overall response rate, rate in parentheses", "setting": "[1]; sum of the rate of CR and PR, n = 337 / n = 164", "value": "(12.8"}, {"measurement": "Disease control rate, rate in parentheses", "setting": "[1]; sum of the rates of CR, PR, and SD, n = 337 / n = 164", "value": "(65.2"}, {"measurement": "Overall survival", "setting": "[2]", "value": 10.0, "unit": "months"}, {"measurement": "Time to disease progression", "setting": "[2]", "value": 2.6, "unit": "months"}, {"measurement": "Disease control rate, no. of patients", "setting": "[2]; n = 648 / n = 650", "value": 298}, {"measurement": "Disease control rate, rate in parentheses", "setting": "[2]; n = 648 / n = 650", "value": "(45.8)"}, {"measurement": "Overall response rate, no. of patients", "setting": "[2]; n = 648 / n = 650", "value": 27}, {"measurement": "Overall response rate, rate in parentheses", "setting": "[2]; n = 648 / n = 650", "value": "(4.2"}, {"measurement": "Complete response, no. of patients", "setting": "[2]; [4]", "value": 1}, {"measurement": "Complete response, rate in parentheses", "setting": "[2]; [4]", "value": "(0.2)"}, {"measurement": "Partial response, no. of patients", "setting": "[2]; [4]", "value": 26}, {"measurement": "Partial response, rate in parentheses", "setting": "[2]; [4]", "value": "(4.0)"}, {"measurement": "Progressive disease, no. of patients", "setting": "[2]; [4]", "value": 243}, {"measurement": "Progressive disease, rate in parentheses", "setting": "[2]; [4]", "value": "(37.4)"}, {"measurement": "Stable disease, no. of patients", "setting": "[2]; [4]", "value": 271}, {"measurement": "Stable disease, rate in parentheses", "setting": "[2]; [4]", "value": "(41.7)"}, {"measurement": "Unable to evaluate, no. of patients", "setting": "[2]; [4]", "value": 72}, {"measurement": "Unable to evaluate, rate in parentheses", "setting": "[2]; [4]", "value": "(11.1)"}]}
